According to PubChem BioAssay (NCI):
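Results reflect a 48-hour exposure of cells in 96-well plates to compound at five concentrations. At the GI50, growth is halved. The concentration for full growth arrest is given as TGI.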

Key:
Test in all cases: DTP human tumour cell line panel, 48 h
SK-OV-3 ovarian = tested on: SK-OV-3 ovarian
UACC-257 melanoma = tested on: UACC-257 melanoma
DU-145 prostate = tested on: DU-145 prostate
MDA-MB-435 = tested on: MDA-MB-435
SF-295 CNS = tested on: SF-295 CNS
MALME-3M melanoma = tested on: MALME-3M melanoma
CCRF-CEM leukemia = tested on: CCRF-CEM leukemia
TK-10 renal = tested on: TK-10 renal
COLO 205 colon = tested on: COLO 205 colon
SNB-75 CNS = tested on: SNB-75 CNS
SK-MEL-5 melanoma = tested on: SK-MEL-5 melanoma
A549 NSCLC = tested on: A549 NSCLC
NCI/ADR-RES ovarian = tested on: NCI/ADR-RES ovarian
BT-549 breast = tested on: BT-549 breast
HL-60(TB) leukemia = tested on: HL-60(TB) leukemia
HCT-116 colon = tested on: HCT-116 colon
UACC-62 melanoma = tested on: UACC-62 melanoma
OVCAR-5 ovarian = tested on: OVCAR-5 ovarian
SF-539 CNS = tested on: SF-539 CNS
T-47D breast = tested on: T-47D breast
OVCAR-3 ovarian = tested on: OVCAR-3 ovarian
NCI-H460 lung = tested on: NCI-H460 lung
CAKI-1 renal = tested on: CAKI-1 renal
SR leukemia = tested on: SR leukemia
ACHN renal = tested on: ACHN renal
NCI-H226 lung = tested on: NCI-H226 lung
KM12 colon = tested on: KM12 colon
HS 578T breast = tested on: HS 578T breast
HCC-2998 colon = tested on: HCC-2998 colon
HCT-15 colon = tested on: HCT-15 colon
LOX IMVI melanoma = tested on: LOX IMVI melanoma
786-0 renal = tested on: 786-0 renal
RPMI-8226 leukemia = tested on: RPMI-8226 leukemia
SNB-19 CNS = tested on: SNB-19 CNS
SF-268 CNS = tested on: SF-268 CNS
UO-31 renal = tested on: UO-31 renal
HOP-92 NSCLC = tested on: HOP-92 NSCLC
EKVX NSCLC = tested on: EKVX NSCLC
RXF 393 renal = tested on: RXF 393 renal
MDA-MB-231 breast = tested on: MDA-MB-231 breast
A498 renal = tested on: A498 renal
K-562 leukemia = tested on: K-562 leukemia
IGROV1 ovarian = tested on: IGROV1 ovarian
SK-MEL-28 melanoma = tested on: SK-MEL-28 melanoma
NCI-H23 lung = tested on: NCI-H23 lung
PC-3 prostate = tested on: PC-3 prostate
NCI-H522 lung = tested on: NCI-H522 lung
OVCAR-4 ovarian = tested on: OVCAR-4 ovarian
HOP-62 NSCLC = tested on: HOP-62 NSCLC
OVCAR-8 ovarian = tested on: OVCAR-8 ovarian
SK-MEL-2 melanoma = tested on: SK-MEL-2 melanoma
HT29 colon = tested on: HT29 colon
SW-620 colon = tested on: SW-620 colon
M14 melanoma = tested on: M14 melanoma
SN12C renal = tested on: SN12C renal
MCF7 breast = tested on: MCF7 breast
U251 CNS = tested on: U251 CNS
MOLT-4 leukemia = tested on: MOLT-4 leukemia

`Cc1cc(I)cc(CN(C)CCN(C)C)c1O` was tested, and the GI50 (SK-OV-3 ovarian) was 76.6 µM, the TGI (SK-OV-3 ovarian) was > 100 µM and the GI50 (UACC-257 melanoma) was 39.3 µM. For the same compound, the TGI (UACC-257 melanoma) was > 62 µM, the GI50 (DU-145 prostate) was 44.4 µM and the TGI (DU-145 prostate) was > 100 µM. It also gave a GI50 (MDA-MB-435) of 18.8 µM, a TGI (MDA-MB-435) of 48.9 µM and a GI50 (SF-295 CNS) of 20.5 µM. For the same compound, the TGI (SF-295 CNS) was 56.8 µM, the GI50 (MALME-3M melanoma) was 18.9 µM and the TGI (MALME-3M melanoma) was 36.8 µM. The GI50 (CCRF-CEM leukemia) was < 0.0354 µM, the GI50 (TK-10 renal) was 33.1 µM and the TGI (TK-10 renal) was > 100 µM. The GI50 (COLO 205 colon) was 17.3 µM, the TGI (COLO 205 colon) was 33.3 µM and the GI50 (SNB-75 CNS) was 21.9 µM. It also gave a TGI (SNB-75 CNS) of 59.9 µM, a GI50 (SK-MEL-5 melanoma) of 16.5 µM and a TGI (SK-MEL-5 melanoma) of 30.3 µM. The GI50 (A549 NSCLC) was 46.6 µM, the TGI (A549 NSCLC) was > 100 µM and the GI50 (NCI/ADR-RES ovarian) was 38.1 µM. The TGI (NCI/ADR-RES ovarian) was > 100 µM, the GI50 (BT-549 breast) was 26.8 µM and the TGI (BT-549 breast) was > 78.3 µM. It also gave a GI50 (HL-60(TB) leukemia) of 19.7 µM, a TGI (HL-60(TB) leukemia) of 55.9 µM and a GI50 (HCT-116 colon) of 24.9 µM. The TGI (HCT-116 colon) was > 100 µM, the GI50 (UACC-62 melanoma) was 17.8 µM and the TGI (UACC-62 melanoma) was 33 µM. The GI50 (OVCAR-5 ovarian) was 55.7 µM, the TGI (OVCAR-5 ovarian) was > 100 µM and the GI50 (SF-539 CNS) was 30.7 µM. For the same compound, the TGI (SF-539 CNS) was > 82.8 µM, the GI50 (T-47D breast) was 28.8 µM and the TGI (T-47D breast) was > 100 µM. For the same compound, the GI50 (OVCAR-3 ovarian) was 41.9 µM, the TGI (OVCAR-3 ovarian) was > 100 µM and the GI50 (NCI-H460 lung) was 26.7 µM. The TGI (NCI-H460 lung) was > 100 µM, the GI50 (CAKI-1 renal) was 26.7 µM and the TGI (CAKI-1 renal) was > 80.4 µM. The GI50 (SR leukemia) was 5.44 µM, the TGI (SR leukemia) was 50.4 µM and the GI50 (ACHN renal) was 39.6 µM. The TGI (ACHN renal) was > 100 µM, the GI50 (NCI-H226 lung) was 75.3 µM and the TGI (NCI-H226 lung) was > 100 µM. For the same compound, the GI50 (KM12 colon) was 46.3 µM, the TGI (KM12 colon) was > 100 µM and the GI50 (HS 578T breast) was 26 µM. For the same compound, the TGI (HS 578T breast) was > 69 µM, the GI50 (HCC-2998 colon) was 16.3 µM and the TGI (HCC-2998 colon) was 32.1 µM. The GI50 (HCT-15 colon) was 28.5 µM, the TGI (HCT-15 colon) was 76.5 µM and the GI50 (LOX IMVI melanoma) was 24.4 µM. The TGI (LOX IMVI melanoma) was > 73.1 µM, the GI50 (786-0 renal) was 40.1 µM and the TGI (786-0 renal) was > 100 µM. For the same compound, the GI50 (RPMI-8226 leukemia) was 15.5 µM, the TGI (RPMI-8226 leukemia) was 51.6 µM and the GI50 (SNB-19 CNS) was 64.3 µM. The TGI (SNB-19 CNS) was > 100 µM, the GI50 (SF-268 CNS) was 20.7 µM and the TGI (SF-268 CNS) was > 73 µM. For the same compound, the GI50 (UO-31 renal) was 40.7 µM, the TGI (UO-31 renal) was > 100 µM and the GI50 (HOP-92 NSCLC) was 17.1 µM. For the same compound, the TGI (HOP-92 NSCLC) was 67.3 µM, the GI50 (EKVX NSCLC) was 61.5 µM and the TGI (EKVX NSCLC) was > 100 µM. The GI50 (RXF 393 renal) was 25.5 µM, the TGI (RXF 393 renal) was > 84.8 µM and the GI50 (MDA-MB-231 breast) was 26.7 µM. For the same compound, the TGI (MDA-MB-231 breast) was > 72.3 µM, the GI50 (A498 renal) was 33.8 µM and the TGI (A498 renal) was > 77.9 µM. The GI50 (K-562 leukemia) was 24.9 µM, the TGI (K-562 leukemia) was > 64.3 µM and the GI50 (IGROV1 ovarian) was 27.7 µM. The TGI (IGROV1 ovarian) was 82.7 µM, the GI50 (SK-MEL-28 melanoma) was 18.2 µM and the TGI (SK-MEL-28 melanoma) was 33.4 µM. For the same compound, the GI50 (NCI-H23 lung) was 33.1 µM, the TGI (NCI-H23 lung) was > 100 µM and the GI50 (PC-3 prostate) was 29.1 µM. For the same compound, the TGI (PC-3 prostate) was > 100 µM, the GI50 (NCI-H522 lung) was 36.8 µM and the TGI (NCI-H522 lung) was > 100 µM. For the same compound, the GI50 (OVCAR-4 ovarian) was 52.2 µM, the TGI (OVCAR-4 ovarian) was > 100 µM and the GI50 (HOP-62 NSCLC) was 37.8 µM. The TGI (HOP-62 NSCLC) was > 100 µM, the GI50 (OVCAR-8 ovarian) was 60 µM and the TGI (OVCAR-8 ovarian) was > 100 µM. For the same compound, the GI50 (SK-MEL-2 melanoma) was 22.1 µM, the TGI (SK-MEL-2 melanoma) was 44.2 µM and the GI50 (HT29 colon) was 19.4 µM. For the same compound, the TGI (HT29 colon) was 41.9 µM, the GI50 (SW-620 colon) was 39.5 µM and the TGI (SW-620 colon) was > 100 µM. For the same compound, the GI50 (M14 melanoma) was 16 µM, the TGI (M14 melanoma) was 31.8 µM and the GI50 (SN12C renal) was 47.4 µM. For the same compound, the TGI (SN12C renal) was > 100 µM, the GI50 (MCF7 breast) was 25.6 µM and the TGI (MCF7 breast) was 66.1 µM. For the same compound, the GI50 (U251 CNS) was 39.2 µM, the TGI (U251 CNS) was > 100 µM and the GI50 (MOLT-4 leukemia) was 26.6 µM. The TGI (MOLT-4 leukemia) was > 68.6 µM.
